Results on three compounds are retold here after publication PMC11876601 (Molecular Systems Biology, 2025).

The target of one assay is T1, AAK1 (Homo sapiens, UniProt Q2M2I8).
T1 construct: endogenous in cells; host or cells: AsPC-1 lysate
In words: Kinobeads competition pulldown in AsPC-1 lysate. The format is binding. Here is the method:
This was followed by incubation with Kinobeads ε (17.5 µl of settled beads) for 30 min at 4 °C to enrich kinases. […] Enriched proteins were reduced with 50 mM DTT in 8 M urea, 40 mM Tris-HCl, pH 7.4 for 30 min at room temperature, and alkylated with 55 mM chloroacetamide. After reducing the urea concentration to 1–2 M, proteins were digested with trypsin at 37 °C for 16 h. Subsequently, eluted peptides were desalted using SepPak tC18 µElution plates (Waters), freeze-dried by vacuum centrifugation, and stored at −20 °C.
For LC-MS/MS, dried peptides were reconstituted in 0.1% formic acid and analyzed on a Dionex Ultimate3000 nano HPLC (Thermo Scientific) coupled to an Orbitrap Fusion Tribrid mass spectrometer (Thermo Scientific), which was run in data-dependent mode. Peptides were first delivered to a trap column (100 µm × 2 cm, packed in-house with Reprosil-Gold C18 ODS-3 5 µm resin, Dr. Maisch, Ammerbuch) and subsequently washed with solvent A0 (0.1% formic acid in HPLC grade water) at 5 µl/min for 10 min. […] For MS2, up to 12 peptide precursors were isolated (isolation width of 1.2 Th) and subjected to HCD fragmentation using 30% normalized collision energy. […] The duration of dynamic exclusion was set to 30 s.
Oxidized methionine and N-terminal acetylation were set as variable modification, and cysteine carbamidomethylation was set as fixed modification. Label-free quantification (LFQ) and match-between-runs were enabled. All searches were performed with 1% PSM and protein FDR.
Proteins were filtered by potential contaminants, reversed hits and proteins identified only by site. Residual binding of proteins was calculated from LFQ intensities as the ratio between drug doses and vehicle. […] Only kinases quantified with at least 4 unique peptides in the vehicle experiment were considered. Potential targets were further curated through manual inspection of dose-dependent reduction in MS/MS and unique peptide counts.

The subject of a further assay is AZI2. To be noted: AZI2, 5 cell line mix lysate, Kinobeads ε, ref Reinecke et al. (2023), cited from earlier work.
In the next assay the test system is CLK4. More on the design: method as in Reinecke et al. (2023). The conditions noted are these: CLK4, 5 cell line mix lysate, Kinobeads ε, ref Reinecke et al. (2023), cited from earlier work.
The subject of another assay is MAPK7. More on the design: method as in Reinecke et al. (2023). To be noted: MAPK7, 5 cell line mix lysate, Kinobeads ε, ref Reinecke et al. (2023), cited from earlier work.
The subject of a further assay is LOC102724428;SIK1. Also noted: method as in Reinecke et al. (2023). To be noted: LOC102724428;SIK1, 5 cell line mix lysate, Kinobeads ε, ref Reinecke et al. (2023), cited from earlier work.
The subject of another assay is PHKG2. To be noted: PHKG2, 5 cell line mix lysate, Kinobeads ε, ref Reinecke et al. (2023), cited from earlier work.
Another assay deals with TRAF2. Also noted: method as in Reinecke et al. (2023). To be noted: TRAF2, 5 cell line mix lysate, Kinobeads ε, ref Reinecke et al. (2023), cited from earlier work.
A further assay concerns JAK2. More on the design: method as in Reinecke et al. (2023). To be noted: JAK2, 5 cell line mix lysate, Kinobeads ε, ref Reinecke et al. (2023), cited from earlier work.
The target of the next assay is EIF3J. To be noted: 5 cell line mix lysate, Kinobeads ε, ref Reinecke et al. (2023), cited from earlier work.
The subject of another assay is CSNK2A2. To be noted: CSNK2A2, 5 cell line mix lysate, Kinobeads ε, ref Reinecke et al. (2023), cited from earlier work.
Another assay has as its system PLK1. Also noted: method as in Reinecke et al. (2023). To be noted: PLK1, 5 cell line mix lysate, Kinobeads ε, ref Reinecke et al. (2023), cited from earlier work.
The next assay deals with GAK. To be noted: 5 cell line mix lysate, Kinobeads ε, ref Reinecke et al. (2023), cited from earlier work.
The next assay deals with TANK. More on the design: method as in Klaeger et al. (2017). The conditions noted are these: lysate 4 cell line mix (Colo205, K-562, MV-4-11, and SK-N-BE(2)), Kinobeads y, ref Klaeger et al. (2017); cited from earlier work.
A further assay concerns PRKAB2. Also noted: method as in Klaeger et al. (2017). To be noted: lysate 4 cell line mix (Colo205, K-562, MV-4-11, and SK-N-BE(2)), Kinobeads y, ref Klaeger et al. (2017); cited from earlier work.
A further assay concerns PRKAA1. More on the design: method as in Klaeger et al. (2017). To be noted: lysate 4 cell line mix (Colo205, K-562, MV-4-11, and SK-N-BE(2)), Kinobeads y, ref Klaeger et al. (2017); cited from earlier work.
The test system of the next assay is PRKX. More on the design: method as in Klaeger et al. (2017). To be noted: lysate 4 cell line mix (Colo205, K-562, MV-4-11, and SK-N-BE(2)), Kinobeads y, ref Klaeger et al. (2017); cited from earlier work.
The next assay has as its system SIK3. More on the design: method as in Klaeger et al. (2017). The conditions noted are these: lysate 4 cell line mix (Colo205, K-562, MV-4-11, and SK-N-BE(2)), Kinobeads y, ref Klaeger et al. (2017); cited from earlier work.
For another assay, the system named is RPS6KA6. Also noted: method as in Klaeger et al. (2017). The conditions noted are these: lysate 4 cell line mix (Colo205, K-562, MV-4-11, and SK-N-BE(2)), Kinobeads y, ref Klaeger et al. (2017); cited from earlier work.
The test system of another assay is TGFBR1. Also noted: method as in Klaeger et al. (2017). The conditions noted are these: lysate 4 cell line mix (Colo205, K-562, MV-4-11, and SK-N-BE(2)), Kinobeads y, ref Klaeger et al. (2017); cited from earlier work.

T1 sequence (Q2M2I8 whole entry): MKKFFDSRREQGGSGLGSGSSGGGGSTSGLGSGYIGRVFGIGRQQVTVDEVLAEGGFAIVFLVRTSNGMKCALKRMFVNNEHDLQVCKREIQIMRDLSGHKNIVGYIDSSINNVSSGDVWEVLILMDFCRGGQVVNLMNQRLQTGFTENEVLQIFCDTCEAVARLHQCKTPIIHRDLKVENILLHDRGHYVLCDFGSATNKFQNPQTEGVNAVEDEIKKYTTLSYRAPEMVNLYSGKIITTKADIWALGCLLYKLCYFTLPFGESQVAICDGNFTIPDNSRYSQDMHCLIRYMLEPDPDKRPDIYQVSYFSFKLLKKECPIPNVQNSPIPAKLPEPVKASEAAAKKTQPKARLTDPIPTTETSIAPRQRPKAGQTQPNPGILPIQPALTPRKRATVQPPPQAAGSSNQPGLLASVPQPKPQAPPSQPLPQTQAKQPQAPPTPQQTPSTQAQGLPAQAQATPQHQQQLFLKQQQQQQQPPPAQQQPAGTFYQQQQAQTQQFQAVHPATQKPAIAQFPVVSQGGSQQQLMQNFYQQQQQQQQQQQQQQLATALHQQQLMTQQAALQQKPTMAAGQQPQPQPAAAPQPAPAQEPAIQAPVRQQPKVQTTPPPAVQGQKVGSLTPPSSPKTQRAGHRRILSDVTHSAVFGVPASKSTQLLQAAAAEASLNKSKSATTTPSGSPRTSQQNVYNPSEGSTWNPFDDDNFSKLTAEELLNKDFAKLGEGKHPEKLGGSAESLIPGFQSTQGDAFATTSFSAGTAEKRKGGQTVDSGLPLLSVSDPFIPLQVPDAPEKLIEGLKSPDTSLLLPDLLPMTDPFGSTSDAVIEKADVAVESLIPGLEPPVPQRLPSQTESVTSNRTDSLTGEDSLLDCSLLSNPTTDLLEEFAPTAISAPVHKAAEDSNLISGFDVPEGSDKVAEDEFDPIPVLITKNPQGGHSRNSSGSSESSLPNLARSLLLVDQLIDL

As a reminder, the EC50 is the concentration giving half of the maximal effect. With `CNCc1ccc(-c2cc(-c3nc(-c4ccc(S(=O)(=O)C(C)C)cc4)cnc3N)on2)cc1` [Berzosertib], the Kd at AAK1 (AsPC-1 lysate, read-out: KDapp) was determined as 19.3 nM. The compound also had a 50% effective concentration (EC50) on AAK1 (Kinobeads residual binding curve) of 36.7 nM.

As for `COc1cc(N2CCC(N3CCN(C)CC3)CC2)ccc1Nc1ncc(Cl)c(Nc2ccccc2P(C)(C)=O)n1` [Brigatinib], the EC50 was 1120 nM in the assay with AZI2; 49.2 nM in the assay with CLK4; 1060 nM with MAPK7; 106 nM with LOC102724428;SIK1; 199 nM in the assay with PHKG2; 3.94 µM with TRAF2. In addition, the EC50 in the assay with JAK2 was 4.34 µM; in the assay with EIF3J, 434 nM; in the assay on CSNK2A2, 720 nM; in the assay on PLK1, 1100 nM; in the assay with GAK, 10.3 nM. The pKDapp is 6.10 on AZI2; 7.38 at CLK4; 6.08 at MAPK7; 6.98 at LOC102724428;SIK1; 6.71 on PHKG2; 5.48 at TRAF2. The pKDapp is reported as 5.46 at JAK2; 6.36 at EIF3J; 6.16 on CSNK2A2; 5.99 at PLK1; 8.24 at GAK. In addition, the Kd is 789 nM on AZI2 (read-out: KDapp); 41.6 nM at CLK4 (read-out: KDapp); 828 nM at MAPK7 (read-out: KDapp); 106 nM on LOC102724428;SIK1 (read-out: KDapp); 193 nM on PHKG2 (read-out: KDapp); 3.28 µM on TRAF2 (read-out: KDapp). The Kd on JAK2 (read-out: KDapp) was 3.47 µM; on EIF3J (read-out: KDapp) it was 434 nM; at CSNK2A2 (read-out: KDapp), 693 nM; at PLK1 (read-out: KDapp), 1010 nM; on GAK (read-out: KDapp) it was 5.8 nM.

For `C[C@]12O[C@H](C[C@]1(O)CO)n1c3ccccc3c3c4c(c5c6ccccc6n2c5c31)CNC4=O` [Lestaurtinib], the EC50 was 1340 nM with TANK; 3.52 µM in the assay with PRKAB2; 1320 nM with PRKAA1; […] in the assay with PRKX; 1040 nM in the assay on SIK3; 2330 nM in the assay with RPS6KA6. In addition, the EC50 with TGFBR1 was […].
